This note sets out measurements from US4814340A, “1,4-diaryl alkane derivatives having insecticidal and acaricidal activity” (priority 1982, dated 1989).

Broadly, the mortality is the percentage killed.

Structures are written as SMILES.

The first data set deals with German cockroach (female adults). Briefly: Test 3 (Effect on German Cockroach). Type of data set: in vivo, Blatella germanica (German cockroach). The settings on record: Blattella germanica, 48 h. As to the method:
(§1) Compounds (a) through (g) described below were tested as comparative compounds in the same manner as the compounds of the present invention. All the tests were doubly carried out. Namely, each result was expressed by an average value of two data.
One ml of an acetone solution of a test compound of a specified concentration was poured in a high Petri dish having a diameter of 9 cm and a height of 9 cm. The Petri dish was allowed to stand, and thereby the acetone was evaporated. The upper part of the inner wall of the Petri dish was treated with butter to prevent the adults of German cockroach from escaping from the Petri dish. 10 female adults of German cockroach were set free in each Petri dish. 48 hours after, the number of killed adults was counted.
As for `CCOP(=S)(OCC)Oc1cc(C)nc(C(C)C)n1` [(c), Diazinon, reference compound], the mortality at 1 mg/m2 came to 0% and the mortality at 5 mg/m2 amounted to 80%.
As for `CC(C)(CCCc1ccc(F)c(Oc2ccccc2)c1)c1ccccc1` [Compound 27], the mortality at 1 mg/m2 turned out to be 100% and the mortality at 5 mg/m2 amounted to 100%.
`CCOc1ccc(C(C)(C)CCCc2ccc(F)c(Oc3ccc(F)cc3)c2)cc1` [Compound 55]: the mortality at 1 mg/m2 amounted to 100% and the mortality at 5 mg/m2 turned out to be 100%.

The same data set, now with this note: Blattella germanica; 1 mg/m^2; 48 hours; female adults; read-out: Mortality (%).
As for `CCOP(=S)(OCC)Oc1ccc(=O)n(-c2ccccc2)n1` [(b), 0,0-diethyl-0-(3-oxo-2-phenyl-2H-pyridazin-6-yl)-phosphorothioate, reference compound], the mortality at 1 mg/m2 is 0%.
As for `Cc1ccc(C(C)(C)CCCc2cccc(Oc3ccccc3)c2)cc1` [Compound 1, 1-(3-phenoxyphenyl)-4-(4-methylphenyl)-4-methylpentane], the mortality at 1 mg/m2 stood at 80%.
Consider `CC(C)(CCCc1cccc(Oc2ccccc2)c1)c1ccc2c(c1)OCO2` [Compound 4, 1-(3-phenoxyphenyl)-4-(3,4-methylenedioxyphenyl)-4-methylpentane], for which the mortality at 1 mg/m2 was determined as 40%.
Same read-out and setting: under `COc1ccc(C(C)(C)CCCc2ccc(F)c(Oc3ccccc3)c2)cc1` [Compound 6, 1-(3-phenoxy-4-fluorophenyl)-4-(4-methoxyphenyl)-4-methylpentane] stands 100%; under `CC(C)(CCCc1ccc(F)c(Oc2ccccc2)c1)c1ccc(OC(F)F)cc1` [Compound 10, 1-(3-phenoxy-4-fluorophenyl)-4-(4-difluoromethoxyphenyl)-4-methylpentane], 100%; under `Cc1ccc(C(C)(C)CCCc2ccc(F)c(Oc3ccccc3)c2)cc1` [Compound 29], 100%.
The same measure, in the same setting: as for `CCOc1ccc(C2(CCCc3cccc(Oc4ccccc4)c3)CCC2)cc1` [Compound 31, 1-(3-Phenoxyphenyl)-3-[1-(4-ethoxyphenyl)cyclobutyl]propane], the figure is 100%.

The same data set, now with this note: Blattella germanica; 5 mg/m^2; 48 hours; female adults; read-out: Mortality (%).
For the molecule `CCOP(=S)(OCC)Oc1ccc(=O)n(-c2ccccc2)n1` [(b), 0,0-diethyl-0-(3-oxo-2-phenyl-2H-pyridazin-6-yl)-phosphorothioate, reference compound], the mortality at 5 mg/m2 was found to be 10%.
On the same count and under the same terms, under `Cc1ccc(C(C)(C)CCCc2cccc(Oc3ccccc3)c2)cc1` [Compound 1, 1-(3-phenoxyphenyl)-4-(4-methylphenyl)-4-methylpentane] stands 100%; under `CC(C)(CCCc1cccc(Oc2ccccc2)c1)c1ccc2c(c1)OCO2` [Compound 4, 1-(3-phenoxyphenyl)-4-(3,4-methylenedioxyphenyl)-4-methylpentane], 100%; under `COc1ccc(C(C)(C)CCCc2ccc(F)c(Oc3ccccc3)c2)cc1` [Compound 6, 1-(3-phenoxy-4-fluorophenyl)-4-(4-methoxyphenyl)-4-methylpentane], 100%.
As for `CC(C)(CCCc1ccc(F)c(Oc2ccccc2)c1)c1ccc(OC(F)F)cc1` [Compound 10, 1-(3-phenoxy-4-fluorophenyl)-4-(4-difluoromethoxyphenyl)-4-methylpentane], the mortality at 5 mg/m2 amounted to 100%.
As for `Cc1ccc(C(C)(C)CCCc2ccc(F)c(Oc3ccccc3)c2)cc1` [Compound 29], the mortality at 5 mg/m2 amounted to 100%.
Take `CCOc1ccc(C2(CCCc3cccc(Oc4ccccc4)c3)CCC2)cc1` [Compound 31, 1-(3-Phenoxyphenyl)-3-[1-(4-ethoxyphenyl)cyclobutyl]propane]: the mortality at 5 mg/m2 came out at 100%.

The subject of a further data set is green rice leafhopper (female adults). Briefly: Test 2 (Effect on Green Rice Leafhopper). It counts as in vivo. The following applies: Nephotettix cincticeps, 48 h. As to the method:
as §1
Four or five seedlings of paddy rice with three leaves were bundled, and thereon the same dilution of the emulsifiable concentrate as used in Test 1 was sprayed in an amount of 3 ml. The bundle was dried and covered with a metal net cylinder, and 10 female adults of green rice leafhopper were set free in the cylinder. 48 hours after, the number of killed adults was counted.
The molecule `CCOP(=S)(OCC)Oc1ccc(=O)n(-c2ccccc2)n1` [(b), 0,0-diethyl-0-(3-oxo-2-phenyl-2H-pyridazin-6-yl)-phosphorothioate, reference compound] came in with a mortality at 20 ppm of 90% and a mortality at 100 ppm of 100%.
Regarding `CCOP(=S)(OCC)Oc1cc(C)nc(C(C)C)n1` [(c), Diazinon, reference compound], the mortality at 20 ppm turned out to be 10% and the mortality at 100 ppm came to 80%.

The data set is the same for the next values; noted with them: Nephotettix cincticeps; 20 ppm; 48 hours; female adults; read-out: Mortality (%).
For `COc1ccc(C(C)(C)CCCc2ccc(F)c(Oc3ccccc3)c2)cc1` [Compound 6, 1-(3-phenoxy-4-fluorophenyl)-4-(4-methoxyphenyl)-4-methylpentane], the mortality at 20 ppm is 100%.
Take `CC(C)(CCCc1ccc(F)c(Oc2ccccc2)c1)c1ccc(OC(F)F)cc1` [Compound 10, 1-(3-phenoxy-4-fluorophenyl)-4-(4-difluoromethoxyphenyl)-4-methylpentane]: the mortality at 20 ppm was 100%.
Take `CC(C)(CCCc1ccc(F)c(Oc2ccccc2)c1)c1ccccc1` [Compound 27]: the mortality at 20 ppm came out at 100%.
Consider `CCOc1ccc(C2(CCCc3cccc(Oc4ccccc4)c3)CCC2)cc1` [Compound 31, 1-(3-Phenoxyphenyl)-3-[1-(4-ethoxyphenyl)cyclobutyl]propane], for which the mortality at 20 ppm was found to be 100%.
Regarding `CCOc1ccc(C(C)(C)CCCc2ccc(F)c(Oc3ccc(F)cc3)c2)cc1` [Compound 55], the mortality at 20 ppm is 100%.

Staying with this data set, now noted: Nephotettix cincticeps; 100 ppm; 48 hours; female adults; read-out: Mortality (%).
Regarding `COc1ccc(C(C)(C)CCCc2ccc(F)c(Oc3ccccc3)c2)cc1` [Compound 6, 1-(3-phenoxy-4-fluorophenyl)-4-(4-methoxyphenyl)-4-methylpentane], the mortality at 100 ppm is 100%.
Take `CC(C)(CCCc1ccc(F)c(Oc2ccccc2)c1)c1ccc(OC(F)F)cc1` [Compound 10, 1-(3-phenoxy-4-fluorophenyl)-4-(4-difluoromethoxyphenyl)-4-methylpentane]: the mortality at 100 ppm came to 100%.
Take `CC(C)(CCCc1ccc(F)c(Oc2ccccc2)c1)c1ccccc1` [Compound 27]: the mortality at 100 ppm came out at 100%.
Take `CCOc1ccc(C2(CCCc3cccc(Oc4ccccc4)c3)CCC2)cc1` [Compound 31, 1-(3-Phenoxyphenyl)-3-[1-(4-ethoxyphenyl)cyclobutyl]propane]: the mortality at 100 ppm worked out at 100%.
Still for that read-out and setting: as for `CCOc1ccc(C(C)(C)CCCc2ccc(F)c(Oc3ccc(F)cc3)c2)cc1` [Compound 55], the figure is 100%.

Another data set concerns yearling carps. Briefly: Test 5 (Fish Toxicity). Type of data set: in vivo, carp. The settings on record: 0.1 ppm in water. As to the method: as §1
A water tank having a width of 60 cm, a length of 30 cm and a height of 40 cm was filled with water, and 10 yearling carps having a body length of about 5 cm were set free in the tank and adapted to the environment in the tank. An acetone solution of a test compound was applied into water so as to become a concentration of 1 or 0.1 ppm in water by adding said acetone solution at a rate of one part by volume per 100 parts by volume of water. 48 hours after, the number of killed and living carps was counted and the effect of a test compound on carps was examined.
Regarding `Cc1ccc(C(C)(C)CCCc2cccc(Oc3ccccc3)c2)cc1` [Compound 1, 1-(3-phenoxyphenyl)-4-(4-methylphenyl)-4-methylpentane], the “Mortality(%) 48 Hours After” value is on record as 0%.
On the same count and under the same terms, under `CC(C)(CCCc1cccc(Oc2ccccc2)c1)c1ccc2c(c1)OCO2` [Compound 4, 1-(3-phenoxyphenyl)-4-(3,4-methylenedioxyphenyl)-4-methylpentane] stands 0%; under `COc1ccc(C(C)(C)CCCc2ccc(F)c(Oc3ccccc3)c2)cc1` [Compound 6, 1-(3-phenoxy-4-fluorophenyl)-4-(4-methoxyphenyl)-4-methylpentane], 0%.
Same read-out and setting: as for `CC(C)(CCCc1ccc(F)c(Oc2ccccc2)c1)c1ccc(OC(F)F)cc1` [Compound 10, 1-(3-phenoxy-4-fluorophenyl)-4-(4-difluoromethoxyphenyl)-4-methylpentane], the figure is 5%.
On to `CCOc1ccc(C(C)(C)CCCc2ccc(F)c(Oc3ccc(F)cc3)c2)cc1` [Compound 55], for which the “Mortality(%) 48 Hours After” value was 0%.

Still in this data set, the particulars now being: 1 ppm in water.
Turning to `Cc1ccc(C(C)(C)CCCc2cccc(Oc3ccccc3)c2)cc1` [Compound 1, 1-(3-phenoxyphenyl)-4-(4-methylphenyl)-4-methylpentane], the “Mortality(%) 48 Hours After” value turned out to be 0%.
On the same count and under the same terms, under `CC(C)(CCCc1cccc(Oc2ccccc2)c1)c1ccc2c(c1)OCO2` [Compound 4, 1-(3-phenoxyphenyl)-4-(3,4-methylenedioxyphenyl)-4-methylpentane] stands 0%; under `COc1ccc(C(C)(C)CCCc2ccc(F)c(Oc3ccccc3)c2)cc1` [Compound 6, 1-(3-phenoxy-4-fluorophenyl)-4-(4-methoxyphenyl)-4-methylpentane], 0%.
Same read-out and setting: under `CC(C)(CCCc1ccc(F)c(Oc2ccccc2)c1)c1ccc(OC(F)F)cc1` [Compound 10, 1-(3-phenoxy-4-fluorophenyl)-4-(4-difluoromethoxyphenyl)-4-methylpentane] stands 30%.
Take `CCOc1ccc(C(C)(C)CCCc2ccc(F)c(Oc3ccc(F)cc3)c2)cc1` [Compound 55]: the “Mortality(%) 48 Hours After” value stood at 0%.

Another data set relates to common cutworm (third-instar larvae). Briefly: Test 1 (Effect on Common Cutworm). Type of data set: in vivo. The following applies: Spodoptera litura; 20 ppm; 48 hours; third-instar larvae; read-out: Mortality (%). As to the method: as §1
The emulsifiable concentrate of the test compound, prepared according to the method described in Formulation Example 1, was diluted with water to a specified concentration. Sweet potato leaves were sufficiently immersed in the dilution. The sweet potato leaves were dried and placed in a plastic cup having a diameter of 10 cm, and 10 third-instar larvae of common cutworm were set free in each cup. 48 hours after, the numbers of killed and living larvae were counted and the mortality was calculated.
`Cc1ccc(C(C)(C)CCCc2cccc(Oc3ccccc3)c2)cc1` [Compound 1, 1-(3-phenoxyphenyl)-4-(4-methylphenyl)-4-methylpentane]: the mortality at 20 ppm amounted to 100%.
Still for that read-out and setting: as for `CC(C)(CCCc1cccc(Oc2ccccc2)c1)c1ccc2c(c1)OCO2` [Compound 4, 1-(3-phenoxyphenyl)-4-(3,4-methylenedioxyphenyl)-4-methylpentane], the figure is 100%; as for `COc1ccc(C(C)(C)CCCc2ccc(F)c(Oc3ccccc3)c2)cc1` [Compound 6, 1-(3-phenoxy-4-fluorophenyl)-4-(4-methoxyphenyl)-4-methylpentane], 100%; as for `CC(C)(CCCc1ccc(F)c(Oc2ccccc2)c1)c1ccc(OC(F)F)cc1` [Compound 10, 1-(3-phenoxy-4-fluorophenyl)-4-(4-difluoromethoxyphenyl)-4-methylpentane], 100%.
Still for that read-out and setting: under `CC(C)(CCCc1ccc(F)c(Oc2ccccc2)c1)c1ccccc1` [Compound 27] stands 100%; under `Cc1ccc(C(C)(C)CCCc2ccc(F)c(Oc3ccccc3)c2)cc1` [Compound 29], 100%; under `CCOc1ccc(C(C)(C)CCCc2ccc(F)c(Oc3ccc(F)cc3)c2)cc1` [Compound 55], 100%.

Staying with this data set, now noted: Spodoptera litura; 100 ppm; 48 hours; third-instar larvae; read-out: Mortality (%).
On to `Cc1ccc(C(C)(C)CCCc2cccc(Oc3ccccc3)c2)cc1` [Compound 1, 1-(3-phenoxyphenyl)-4-(4-methylphenyl)-4-methylpentane], for which the mortality at 100 ppm was determined as 100%.
For `CC(C)(CCCc1cccc(Oc2ccccc2)c1)c1ccc2c(c1)OCO2` [Compound 4, 1-(3-phenoxyphenyl)-4-(3,4-methylenedioxyphenyl)-4-methylpentane], the mortality at 100 ppm turned out to be 100%.
Same read-out and setting: under `COc1ccc(C(C)(C)CCCc2ccc(F)c(Oc3ccccc3)c2)cc1` [Compound 6, 1-(3-phenoxy-4-fluorophenyl)-4-(4-methoxyphenyl)-4-methylpentane] stands 100%; under `CC(C)(CCCc1ccc(F)c(Oc2ccccc2)c1)c1ccc(OC(F)F)cc1` [Compound 10, 1-(3-phenoxy-4-fluorophenyl)-4-(4-difluoromethoxyphenyl)-4-methylpentane], 100%.
On the same count and under the same terms, as for `CC(C)(CCCc1ccc(F)c(Oc2ccccc2)c1)c1ccccc1` [Compound 27], the figure is 100%; as for `Cc1ccc(C(C)(C)CCCc2ccc(F)c(Oc3ccccc3)c2)cc1` [Compound 29], 100%; as for `CCOc1ccc(C(C)(C)CCCc2ccc(F)c(Oc3ccc(F)cc3)c2)cc1` [Compound 55], 100%.
